Consider eight compounds from patent US20250059188A1, “ARYLSULPHONAMIDE COMPOUNDS” (Anaxis Pharma Pty Ltd, priority 2021, published 2025).

The test system of assay [1] is Immortalised Mouse Dermal Fibroblasts (MDFs). Briefly: Inhibition of TSI induced necroptosis in mouse dermal fibroblasts (CellTitre-Glo). The conditions noted are these: Mus musculus, Fibroblast, 3 h, MDF cells, TSI cocktail (TNF, Smac mimetic, IDN-6556), read-out: Inhibition of TSI-induced necroptosis (IC50 cell-based assay) in MDF. Put shortly: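 Immortalised MDFs (2200 cells/well, DMEM + 7.4% FBS) pretreated 30 min with compound (36 μM top, 1:3, 10 points, 0.3% DMSO), then 3 h with TNF 100 ng/ml, Smac mimetic 500 nM and IDN-6556 10 μM at 37 °C. Viability by CellTiter-Glo luminescence; IC50 from 4-parameter logistic fit.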

The target of a further assay is mouse MLKL (full length) (Mus musculus (Mouse), UniProt Q9D2Y4). Briefly: KINOMEscan binding assay, mouse MLKL (full length). The conditions noted are these: equilibrium dissociation constant. Put shortly:
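Kd values come from dose-response fits to the Hill equation (Hill slope −1, Levenberg–Marquardt least squares). Compound competed with bead-bound ligand for tagged kinase, and remaining kinase was measured by qPCR after elution. Dilution series: 11 points, 3-fold, 1% DMSO final, top 30,000 nM in most runs.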

pIC50, pKd: −log10 of the molar value.

The term pIC50 denotes −log10 of the IC50, conventionally taken in molar units. What is called pKd is the Kd on a negative log10 scale, so that one unit is a factor of ten.

Chain of mouse MLKL (full length) (Q9D2Y4 whole entry): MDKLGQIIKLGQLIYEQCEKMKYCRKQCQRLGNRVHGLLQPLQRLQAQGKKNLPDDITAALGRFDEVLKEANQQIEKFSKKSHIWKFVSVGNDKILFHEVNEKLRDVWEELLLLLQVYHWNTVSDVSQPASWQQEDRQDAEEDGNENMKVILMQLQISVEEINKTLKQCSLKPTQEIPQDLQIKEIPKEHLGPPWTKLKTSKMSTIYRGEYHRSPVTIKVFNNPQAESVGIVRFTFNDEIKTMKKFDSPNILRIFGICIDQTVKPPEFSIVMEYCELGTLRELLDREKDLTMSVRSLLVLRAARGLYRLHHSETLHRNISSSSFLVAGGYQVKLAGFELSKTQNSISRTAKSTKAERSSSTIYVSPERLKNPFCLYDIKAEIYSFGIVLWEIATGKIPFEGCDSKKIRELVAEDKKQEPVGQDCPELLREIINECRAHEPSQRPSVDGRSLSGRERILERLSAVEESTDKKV

For the compound `Cn1nc(-c2ccc(NS(=O)(=O)C(F)F)c(OCc3ccc(F)cc3)c2)c2c(N)ncc(-c3cnn(C4CCOCC4)c3)c21` [Compound 13, N-(4-(4-amino-1-methyl-7-(1-(tetrahydro-2H-pyran-4-yl)-1H-pyrazol-4-yl)-1H-pyrazolo[4,3-c]pyridin-3-yl)-2-((4-fluorobenzyl)oxy)phenyl)-1,1-difluoromethanesulfonamide], the pIC50 in assay [1] was 5.00 to 6.00. The pKd at mouse MLKL (full length) is > 9.00.
With `C[C@H](Oc1cc(-c2nn(C)c3c(-c4cnn(C5CCOCC5)c4)cnc(N)c23)ccc1NS(=O)(=O)C(F)F)c1ccc(F)cc1` [Compound 19, (S)-N-(4-(4-amino-1-methyl-7-(1-(tetrahydro-2H-pyran-4-yl)-1H-pyrazol-4-yl)-1H-pyrazolo[4,3-c]pyridin-3-yl)-2-(1-(4-fluorophenyl)ethoxy)phenyl)-1,1-difluoromethanesulfonamide], the pIC50 in assay [1] was 6.00 to 7.00. Moreover, the pKd at mouse MLKL (full length) is > 9.00.
As for `C[C@H](Oc1cc(-c2nn(C)c3c(-c4cnn(C5CCCC5)c4)cnc(N)c23)ccc1NS(=O)(=O)C(F)F)c1ccc(F)cc1` [Compound 30, (S)-N-(4-(4-amino-7-(1-cyclopentyl-1H-pyrazol-4-yl)-1-methyl-1H-pyrazolo[4,3-c]pyridin-3-yl)-2-(1-(4-fluorophenyl)ethoxy)phenyl)-1,1-difluoromethanesulfonamide], in assay [1], the pIC50 is 5.00 to 6.00.
Turning to `C[C@H](Oc1cc(-c2nn(C)c3c(-c4cnn(C(C)(C)CO)c4)cnc(N)c23)ccc1NS(=O)(=O)C(F)F)c1ccc(F)cc1` [Compound 97, (S)-N-(4-(4-amino-7-(1-(1-hydroxy-2-methylpropan-2-yl)-1H-pyrazol-4-yl)-1-methyl-1H-pyrazolo[4,3-c]pyridin-3-yl)-2-(1-(4-fluorophenyl)ethoxy)phenyl)-1,1-difluoromethanesulfonamide], the pIC50 in assay [1] is 5.00 to 6.00.
As to `Cn1nc(-c2ccc(NS(=O)(=O)C(F)F)c(OCc3ccc(Cl)c(F)c3)c2)c2c(N)ncc(-c3cnn(C4CCOCC4)c3)c21` [Compound 132, N-(4-(4-amino-1-methyl-7-(1-(tetrahydro-2H-pyran-4-yl)-1H-pyrazol-4-yl)-1H-pyrazolo[4,3-c]pyridin-3-yl)-2-((4-chloro-3-fluorobenzyl)oxy)phenyl)-1,1-difluoromethanesulfonamide], in assay [1], the pIC50 is 5.00 to 6.00.
In the case of `C[C@H](Oc1cc(-c2nn(C)c3c(-c4cnn(C5CCN(C)C6(CC6)C5)c4)cnc(N)c23)ccc1NS(=O)(=O)C(F)F)c1ccc(F)cc1` (single isomer, unassigned) [Compound 170, N-(4-(4-amino-1-methyl-7-(1-((S*)-4-methyl-4-azaspiro[2.5]octan-7-yl)-1H-pyrazol-4-yl)-1H-pyrazolo[4,3-c]pyridin-3-yl)-2-((S)-1-(4-fluorophenyl)ethoxy)phenyl)-1,1-difluoromethanesulfonamide], the pIC50 in assay [1] was > 7.00.
Regarding `C[C@H](Oc1cc(-c2nn(C)c3c(-c4cnn(C5C[C@@H]6CN(C)C[C@@H]6C5)c4)cnc(N)c23)ccc1NS(=O)(=O)C(F)F)c1ccc(F)cc1` (stereo partly drawn) [Compound 164, N-(4-(4-amino-1-methyl-7-(1-((3aR,6aS)-2-methyloctahydrocyclopenta[c]pyrrol-5-yl)-1H-pyrazol-4-yl)-1H-pyrazolo[4,3-c]pyridin-3-yl)-2-((S)-1-(4-fluorophenyl)ethoxy)phenyl)-1,1-difluoromethanesulfonamide], the pIC50 in assay [1] is > 7.00.
On to `C[C@H](Oc1cc(-c2nn(C)c3c(C#CC4CCN(C)CC4)cnc(N)c23)ccc1NS(=O)(=O)C(F)F)c1ccc(F)cc1` [Compound 80, (S)—N-(4-(4-amino-1-methyl-7-((1-methylpiperidin-4-yl)ethynyl)-1H-pyrazolo[4,3-c]pyridin-3-yl)-2-(1-(4-fluorophenyl)ethoxy)phenyl)-1,1-difluoromethanesulfonamide], for which, in assay [1], the pIC50 was 6.00 to 7.00.
